In ChEMBL document CHEMBL1177737, “Bioactive 1,4-dihydroxy-5-phenyl-2-pyridinone alkaloids from Septoria pistaciarum” (J Nat Prod, 2010):
≈ marks a conversion by molar mass, not a printed value. Calls of active or inactive are those of the source. No cut-off for these calls is given here.

Columns and labels:
Staphylococcus aureus [1] = test: Antimicrobial activity against Staphylococcus aureus ATCC 29213 by CLSI method; format: functional, organism-based
SK-OV-3 [2] = test: Cytotoxicity against human SKOV3 cells at 10 ug/ml after 48 hrs by Neutral Red dye; format: functional, cell-based
Aspergillus fumigatus [3] = test: Antimicrobial activity against Aspergillus fumigatus ATCC 90906 at 20 ug/ml by CLSI method; format: functional, organism-based
Vero [4] = test: Cytotoxicity against african green monkey Vero cell at 10 ug/ml after 48 hrs by Neutral Red dye; format: cell-based, Chlorocebus sabaeus
SK-MEL [5] = test: Cytotoxicity against human SK-MEL cells at 10 ug/ml after 48 hrs by Neutral Red dye; format: functional, cell-based
Vero [6] = test: Cytotoxicity against african green monkey Vero cell after 48 hrs by Neutral Red dye; format: cell-based, Chlorocebus sabaeus
Candida albicans [7] = test: Antimicrobial activity against Candida albicans ATCC 90028 at 20 ug/ml by CLSI method; format: functional, organism-based
[8] = Cytotoxicity against pig LLC-PK11 cells at 10 ug/ml after 48 hrs by Neutral Red dye; format: cell-based, Sus scrofa
Staphylococcus aureus [9] = test: Antimicrobial activity against methicillin-resistant Staphylococcus aureus ATCC 33591 by CLSI method; format: functional, organism-based
KB [10] = test: Cytotoxicity against human KB cells at 10 ug/ml after 48 hrs by Neutral Red dye; format: functional, cell-based
Plasmodium falciparum [11] = test: Antiplasmodial activity against chloroquine-sensitive Plasmodium falciparum D6 after 72 hrs by LDH assay; format: functional, organism-based
BT-549 [12] = test: Cytotoxicity against human BT549 cells at 10 ug/ml after 48 hrs by Neutral Red dye; format: functional, cell-based
Plasmodium falciparum [13] = test: Antiplasmodial activity against chloroquine-resistant Plasmodium falciparum W2 after 72 hrs by LDH assay; format: functional, organism-based
Candida albicans [14] = test: Antimicrobial activity against Candida albicans ATCC 90028 by CLSI method; format: functional, organism-based
Aspergillus fumigatus [15] = test: Antimicrobial activity against Aspergillus fumigatus ATCC 90906 by CLSI method; format: functional, organism-based
KB [16] = test: Cytotoxicity against human KB cells after 48 hrs by Neutral Red dye; format: functional, cell-based
SK-OV-3 [17] = test: Cytotoxicity against human SKOV3 cells after 48 hrs by Neutral Red dye; format: functional, cell-based; details: SK-OV-3, 48 h
BT-549 [18] = test: Cytotoxicity against human BT549 cells after 48 hrs by Neutral Red dye; format: functional, cell-based; details: BT-549, 48 h
[19] = Selectivity index, ratio of IC50 for african green monkey (Cercopithecus aethiops) Vero cells to IC50 for chloroquine-sensitive Plasmodium falciparum D6; format: toxicity, cell-based; details: read-out: Ratio IC50
Staphylococcus aureus [20] = test: Antimicrobial activity against methicillin-resistant Staphylococcus aureus ATCC 33591 at 20 ug/ml by CLSI method; format: functional, organism-based
SK-MEL [21] = test: Cytotoxicity against human SK-MEL cells after 48 hrs by Neutral Red dye; format: functional, cell-based
[22] = Cytotoxicity against pig LLC-PK11 cells after 48 hrs by Neutral Red dye; format: cell-based; details: Sus scrofa, LLC-PK11, 48 h
[23] = Selectivity index, ratio of IC50 for african green monkey (Cercopithecus aethiops) Vero cells to IC50 for chloroquine-resistant Plasmodium falciparum W2; format: toxicity, cell-based; details: read-out: Ratio IC50
Staphylococcus aureus [24] = test: Antimicrobial activity against Staphylococcus aureus ATCC 29213 at 20 ug/ml by CLSI method; format: functional, organism-based
[25] = Chlorocebus sabaeus, Vero, 48 h, read-out: IC50

With `CC[C@@H](C)[C@H]1O[C@@H](c2c(O)c(-c3ccccc3)cn(OC)c2=O)[C@H](C)C[C@@H]1C` the MIC (Staphylococcus aureus [1]; Staphylococcus aureus, ATCC 29213) was 5 µg/mL (≈ 13 µM), the IC50 (Staphylococcus aureus [1]; Staphylococcus aureus, ATCC 29213, read-out: IC50) was 2.79 µg/mL (≈ 7.24 µM) and the IC50 (SK-OV-3 [2]) was “Not Active”. For the same compound, the IC50 (Aspergillus fumigatus [3]) was “Not Active”, the MIC (Aspergillus fumigatus [3]) was “inactive” and the IC50 (Vero [4]) was “Not Active”. For the same compound, the IC50 (SK-MEL [5]) was “Not Active”, the IC50 (Vero [6]; vero) was “Non-toxic” and the IC50 (Candida albicans [7]) was “Not Active”. The MIC (Candida albicans [7]) was “inactive”, the IC50 [8] was “Not Active” and the IC50 (Staphylococcus aureus [9]) was 2.99 µg/mL (≈ 7.76 µM). The MIC (Staphylococcus aureus [9]) was 5 µg/mL (≈ 13 µM), the IC50 (KB [10]) was “Not Active” and the IC50 (Plasmodium falciparum [11]) was “Not Active”. The IC50 (BT-549 [12]) was “Not Active” and the IC50 (Plasmodium falciparum [13]) was “Not Active”.

For `COn1cc(-c2ccccc2)c(O)c([C@@H]2O[C@H]([C@H](C)CCO)[C@@H](C)C[C@H]2C)c1=O`, the IC50 (Vero [6]; vero) was “Non-toxic”, the IC50 (Plasmodium falciparum [11]) was “Not Active” and the IC50 (Plasmodium falciparum [13]) was “Not Active”.

With `COn1cc(-c2ccccc2)c(O)c([C@@H]2O[C@H]([C@H](C)CCOC(C)=O)[C@@H](C)C[C@H]2C)c1=O` the IC50 (Vero [6]; vero) was “Non-toxic”, the IC50 (Plasmodium falciparum [11]) was “Not Active” and the IC50 (Plasmodium falciparum [13]) was “Not Active”.

`C[C@@H]1[C@H](O)[C@@H](C)/C=C/C=C/C=C/C=C/C=C/C=C/C=C/[C@H](O[C@@H]2O[C@H](C)[C@@H](O)[C@H](N)[C@@H]2O)C[C@@H]2O[C@](O)(C[C@@H](O)C[C@@H](O)[C@H](O)CC[C@@H](O)C[C@@H](O)CC(=O)O[C@H]1C)C[C@H](O)[C@H]2C(=O)O` [AMPHOTERICIN B] showed an IC50 (Candida albicans [14]) of 0.42 µg/mL (≈ 0.455 µM), an MIC (Candida albicans [14]) of 2.5 µg/mL (≈ 2.71 µM) and an IC50 (Aspergillus fumigatus [15]) of 1.16 µg/mL (≈ 1.26 µM). It also gave an MIC (Aspergillus fumigatus [15]) of 2.5 µg/mL (≈ 2.71 µM).

For `C[C@@H]1CC[C@H]2[C@@H](C)C(=O)O[C@@H]3O[C@@]4(C)CC[C@@H]1[C@]32OO4` [ARTEMISININ], the IC50 (Vero [6]; vero) was “Non-toxic”.

With `CCN(CC)CCCC(C)Nc1ccnc2cc(Cl)ccc12` (centres undefined) [CHLOROQUINE] the IC50 (Vero [6]; vero) was “Non-toxic”.

In the case of `COc1cccc2c1C(=O)c1c(O)c3c(c(O)c1C2=O)C[C@@](O)(C(=O)CO)C[C@@H]3O[C@H]1C[C@H](N)[C@H](O)[C@H](C)O1` [DOXORUBICIN], the IC50 (KB [16]) is reported as 1.35 µg/mL (≈ 2.48 µM), the IC50 (Vero [6]; [25]) is reported as > 5 µg/mL and the IC50 (SK-OV-3 [17]) is reported as 1.2 µg/mL (≈ 2.21 µM). The IC50 (BT-549 [18]) was 0.8 µg/mL (≈ 1.47 µM).

`CC[C@@H](C)[C@H]1O[C@@H](c2c(O)c(-c3ccccc3)cn(O)c2=O)[C@H](C)C[C@@H]1C` [SEPTORIAMYCIN A] gave a selectivity ratio [19] of 3.9, an IC50 (Candida albicans [14]) of 12.1 µg/mL (≈ 32.5 µM) and an IC50 (Aspergillus fumigatus [15]) of 8.76 µg/mL (≈ 23.6 µM). For the same compound, the IC50 (KB [16]) was 5 µg/mL (≈ 13.5 µM), the IC50 (Staphylococcus aureus [20]) was “Not Active” and the MIC (Staphylococcus aureus [20]) was “inactive”. For the same compound, the IC50 (Staphylococcus aureus [1]) was “Not Active”, the MIC (Staphylococcus aureus [1]) was “inactive” and the IC50 (Vero [6]; [25]) was 1.3 µg/mL (≈ 3.5 µM). For the same compound, the IC50 (SK-MEL [21]) was 1.5 µg/mL (≈ 4.04 µM), the IC50 [22] was 1.65 µg/mL (≈ 4.44 µM) and the IC50 (SK-OV-3 [17]) was 2.6 µg/mL (≈ 7 µM). The selectivity ratio [23] was 6.5, the IC50 (BT-549 [18]) was 1.65 µg/mL (≈ 4.44 µM) and the IC50 (Staphylococcus aureus [24]) was “Not Active”. For the same compound, the MIC (Staphylococcus aureus [24]) was “inactive”.
